Legend:
[1] = target: T1, chitin synthase 1 of Candida albicans chs2 Δ chs 3 Δ (Candida albicans, UniProt P23316); assay: In vitro enzyme assay for chitin synthase 1 of Candida albicans (enzyme 1); assay type: biochemical; details: relative to polyoxin D (50% inhibitory activity = value 5)
T1 construct: Crude enzyme was prepared using the Candida albicans chs2 Δ chs 3 Δ mutant; endogenous in cells; host or cells: Candida albicans chs2Δ/chs2Δ chs3Δ/chs3Δ mutant; 130,000 x g membrane pellet
In short: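 Trypsin-activated crude membrane chitin synthase 1 from C. albicans chs2Δ chs3Δ was incubated 90 min at 30 °C with 1.1 mM UDP-[14C]GlcNAc and 2 mM cobalt acetate in Tris-HCl pH 7.5. Filtered TCA precipitate was counted by scintillation; values are scores 1–8 against polyoxin D (5 = same concentration).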

[2] = target: T2, chitin synthase 2 of Saccharomyces cerevisiae ECY38-38A(pAS6) (Saccharomyces cerevisiae, UniProt P14180); assay: In vitro enzyme assay for chitin synthase 2 of Saccharomyces cerevisiae (enzyme 2); assay type: biochemical; details: relative to polyoxin D (50% inhibitory activity = value 5)
T2 construct: made in house; host or cells: Saccharomyces cerevisiae ECY38-38A (chs1-23 chs2::LEU2 cal1/csd2) carrying plasmid pAS6, grown in galactose medium; 130,000 x g membrane pellet
In short: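 Values are scores: 5 means 50% inhibition at the same concentration as polyoxin D, lower scores 2- to 16-fold higher concentration, higher scores ½ to ⅛. Radiolabel from 1.1 mM UDP-[14C]-GlcNAc was incorporated into TCA-insoluble chitin over 90 min at 30 °C (pH 7.5 Tris, 2 mM Co2+). The enzyme was a trypsin-activated membrane fraction from CHS2-only S. cerevisiae ECY38-38A(pAS6).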

[3] = system: Aspergillus flavus ATCC 64025; assay: In vitro antifungal activity (MIC), NCCLS method; assay type: cell-based; details: 48 hours
In short: (§1)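 MIC read as the lowest concentration inhibiting growth after 48 hours of culture. Setup follows NCCLS: compound diluted two-fold and inoculated at 5×10^2 to 2.5×10^3 cell/mL final.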

[4] = system: Aspergillus fumigatus ATCC 16424; assay: In vitro antifungal activity (MIC), NCCLS method; assay type: cell-based; details: 48 hours
In short: as §1

[5] = system: Aspergillus terreus ATCC 46941; assay: In vitro antifungal activity (MIC), NCCLS method; assay type: cell-based; details: 48 hours
In short: as §1

[6] = system: Candida albicans A207 (clinical isolate); assay: In vitro antifungal activity (MIC), NCCLS method; assay type: cell-based; details: 48 hours
In short: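 Test samples were serially diluted two-fold, then inoculated with fungus to a final cell density of 5×10^2 to 2.5×10^3 cell/mL, following the NCCLS method. Plates were cultured for 48 hours and the minimum inhibitory concentration recorded.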

[7] = system: Candida albicans ATCC 10231; assay: In vitro antifungal activity (MIC), NCCLS method; assay type: cell-based; details: 48 hours
In short: (§2)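 Broth microdilution per NCCLS: two-fold serial dilutions of test compound inoculated with fungal suspension at a final 5×10^2 to 2.5×10^3 cell/mL. Strains other than Cryptococcus neoformans were incubated 48 hours before MIC reading.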

[8] = system: Candida glabrata ATCC 48435; assay: In vitro antifungal activity (MIC), NCCLS method; assay type: cell-based; details: Candida glabrata ATCC 48435; 48 hours
In short: as §2

Candida krusei ATCC 6258 = assay: In vitro antifungal activity (MIC), NCCLS method; assay type: cell-based; details: 48 hours
In short: as §2

[9] = system: Candida lusitaniae ATCC 42720; assay: In vitro antifungal activity (MIC), NCCLS method; assay type: cell-based; details: 48 hours
In short: as §2

[10] = system: Candida parapsilosis ATCC 34136; assay: In vitro antifungal activity (MIC), NCCLS method; assay type: cell-based; details: Candida parapsilosis ATCC 34136; 48 hours
In short: as §2

[11] = system: Candida tropicalis ATCC 13803; assay: In vitro antifungal activity (MIC), NCCLS method; assay type: cell-based; details: 48 hours
In short: as §2

[12] = system: Cryptococcus neoformans ATCC 36556; assay: In vitro antifungal activity (MIC), NCCLS method; assay type: cell-based; details: RPMI 1640 medium, 72 hours
In short: as §2

[13] = system: Mucor ramosissimus ATCC 90286; assay: In vitro antifungal activity (MIC), NCCLS method; assay type: cell-based; details: 48 hours
In short: as §2

human pathogenic fungi = assay: Antifungal activity against human pathogenic fungi (summary statements); assay type: cell-based
Description: Candida albicans ATCC 10231, Candida lusitaniae ATCC 42720, Candida krusei ATCC 6258, Candida tropicalis ATCC 13803, Candida glabrata ATCC 48435, Candida parapsilosis ATCC 34136, Cryptococcus neoformans ATCC 36556, Aspergillus fumigatus ATCC 16424, Aspergillus flavus ATCC 64025, Aspergillus terreus ATCC 46941 and Mucor ramosissimus ATCC 90286 strains for the MIC (minimum inhibitory concentration) measurement were obtained from ATCC (American Type Culture Collection) in the U.S. The Candida albicans A207(clinical isolate) strain was used by isolating it from the patients.
The determination of MIC was performed according to the NCCLS (National Committee for Clinical Laboratory Standard) method. Each test sample solution was diluted two-fold and inoculated with a fungal suspension to reach a final inoculum size of 5×10^2 to 2.5×10^3 cell/mL. The Cryptococcus neoformans strain was cultured in the RPMI 1640 medium for 72 hours. Other strains were cultured for 48 hours.

chitin synthases = assay: Inhibitory activity against the chitin synthases (summary statements); assay type: biochemical
Description: The inhibitory activities against the chitin synthase 1 of Candida albicans chs2 Δ chs 3 Δ (abbreviated as ‘enzyme 1’) and the chitin synthase 2 of Saccharomyces cerevisiae ECY38-38A(pAS6)(abbreviated as ‘enzyme 2’) was examined for compound Nos. 1 to 70 compound and polyoxin D, a positive control compound.
The inhibitory activity against the chitin synthase 1 prepared from Candida albicans and the chitin synthase 2 prepared from Saccharomyces cerevisiae were examined as follows. A reaction mixture containing 32 mM Tris-HCl (pH 7.5), 2 mM cobalt acetate, 1.1 mM UDP-[U-^14C]-N-acetyl-d-glucosamine (GlcNAc) (400,000 cpm/μmol), 2 μL of trypsin (0.75 mg/mL), 20 μL of each crude enzyme and 14 μL of each test sample was kept at 30° C. for 15 minutes to activate the enzyme. Then, 2 μL of trypsin inhibitor (1.5 mg/mL) was added and the mixture was kept in an ice bath for 10 minutes to deactivate trypsin. 2 μL of 0.8 M N-acetyl-d-glucosamine was added to a total volume of 50 μL and reaction was performed at 30° C. for 90 minutes. The reaction was stopped using 1 mL of 10% TCA solution and the reaction solution was filtered with a GF/C filter and dried at room temperature. After adding 3 mL of a scintillation cocktail solution, the amount of isotopes was measured using a liquid scintillation counter. Percentage inhibition against each enzyme was calculated by the following Equation 1.

T2 sequence (P14180 whole entry): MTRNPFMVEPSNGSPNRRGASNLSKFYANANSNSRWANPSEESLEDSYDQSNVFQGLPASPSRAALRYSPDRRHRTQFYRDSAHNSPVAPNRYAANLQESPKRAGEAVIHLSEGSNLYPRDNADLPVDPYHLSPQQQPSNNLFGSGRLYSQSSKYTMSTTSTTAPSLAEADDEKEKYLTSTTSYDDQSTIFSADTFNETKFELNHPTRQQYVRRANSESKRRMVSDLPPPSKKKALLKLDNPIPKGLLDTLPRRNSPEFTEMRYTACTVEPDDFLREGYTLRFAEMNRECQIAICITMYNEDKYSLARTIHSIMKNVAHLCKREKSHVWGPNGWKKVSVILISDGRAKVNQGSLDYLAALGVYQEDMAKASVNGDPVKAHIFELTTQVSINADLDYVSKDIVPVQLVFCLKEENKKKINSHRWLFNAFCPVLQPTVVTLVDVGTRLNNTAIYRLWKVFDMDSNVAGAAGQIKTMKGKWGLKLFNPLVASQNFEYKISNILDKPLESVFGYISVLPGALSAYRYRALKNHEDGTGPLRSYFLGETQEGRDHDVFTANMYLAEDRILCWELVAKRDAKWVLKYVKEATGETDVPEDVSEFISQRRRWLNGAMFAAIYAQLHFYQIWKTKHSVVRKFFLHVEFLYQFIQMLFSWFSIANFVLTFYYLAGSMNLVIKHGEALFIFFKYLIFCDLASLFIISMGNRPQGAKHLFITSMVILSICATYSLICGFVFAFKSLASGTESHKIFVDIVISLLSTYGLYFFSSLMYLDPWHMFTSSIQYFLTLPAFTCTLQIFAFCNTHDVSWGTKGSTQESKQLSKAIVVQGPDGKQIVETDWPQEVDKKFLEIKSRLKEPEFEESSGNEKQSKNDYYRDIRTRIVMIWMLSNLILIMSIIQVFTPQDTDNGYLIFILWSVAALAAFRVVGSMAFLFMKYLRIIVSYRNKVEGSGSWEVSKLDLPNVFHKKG
T1 sequence (P23316 whole entry, stated change not applied): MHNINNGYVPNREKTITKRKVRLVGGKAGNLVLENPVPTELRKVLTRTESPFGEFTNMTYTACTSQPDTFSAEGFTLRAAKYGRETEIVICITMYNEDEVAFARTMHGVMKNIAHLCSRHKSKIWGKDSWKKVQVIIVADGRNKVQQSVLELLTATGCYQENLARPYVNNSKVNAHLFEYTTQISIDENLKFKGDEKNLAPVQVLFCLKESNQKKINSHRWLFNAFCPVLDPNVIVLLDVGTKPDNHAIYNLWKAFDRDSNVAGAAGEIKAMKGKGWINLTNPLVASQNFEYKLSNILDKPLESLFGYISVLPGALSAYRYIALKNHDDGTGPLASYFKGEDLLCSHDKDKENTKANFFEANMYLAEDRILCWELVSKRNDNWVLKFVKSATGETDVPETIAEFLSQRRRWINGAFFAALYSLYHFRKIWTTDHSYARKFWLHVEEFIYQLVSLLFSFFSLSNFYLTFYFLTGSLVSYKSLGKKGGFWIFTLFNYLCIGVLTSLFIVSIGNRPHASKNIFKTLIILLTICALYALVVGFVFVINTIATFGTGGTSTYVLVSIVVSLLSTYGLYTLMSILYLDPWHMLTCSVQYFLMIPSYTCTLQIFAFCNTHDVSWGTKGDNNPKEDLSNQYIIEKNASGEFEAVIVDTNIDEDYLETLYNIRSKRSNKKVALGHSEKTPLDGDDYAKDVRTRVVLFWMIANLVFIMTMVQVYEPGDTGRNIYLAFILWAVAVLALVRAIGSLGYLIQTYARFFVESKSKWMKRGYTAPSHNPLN

Substance | Relative activity Enzyme 1 [1] | Relative activity Enzyme 2 [2] | MIC (minimum inhibitory concentration) [3] [µg/mL] | MIC (minimum inhibitory concentration) [4] [µg/mL] | MIC (minimum inhibitory concentration) [5] [µg/mL] | MIC (minimum inhibitory concentration) [6] [µg/mL] | MIC (minimum inhibitory concentration) [7] [µg/mL] | MIC (minimum inhibitory concentration) [8] [µg/mL] | MIC (minimum inhibitory concentration) (Candida krusei ATCC 6258) [µg/mL] | MIC (minimum inhibitory concentration) [9] [µg/mL] | MIC (minimum inhibitory concentration) [10] [µg/mL] | MIC (minimum inhibitory concentration) [11] [µg/mL] | MIC (minimum inhibitory concentration) [12] [µg/mL] | MIC (minimum inhibitory concentration) [13] [µg/mL] | antifungal activities compared with amphotericin B (in words) (human pathogenic fungi) | inhibitory activities against the chitin synthases (in words) (chitin synthases)
13-(4-Isopropylbenzyl)-9-O-propylberberrubine chloride [Compound No. 49] | 4 (Compounds having the inhibitory activity at 2-fold, 4-fold, 8-fold and 16-fold higher concentrations than that of polyoxin D were given the values of 4, 3, 2 and 1, respectively) | 7 (compounds having the inhibitory activity at ½, ¼ and ⅛ lower concentrations than that of polyoxin D were given the values of 6, 7 and 8, respectively) | 8 | 4 | 8 | 1 | 1 | 4 | 2 | 1 | 4 | 0.5 | 2 | 4 | comparable to that of amphotericin B | exceptionally superior inhibitory activities
13-(4-Isopropylbenzyl)-9-O-propylberberrubine iodide [Compound No. 17] | 4 (Compounds having the inhibitory activity at 2-fold, 4-fold, 8-fold and 16-fold higher concentrations than that of polyoxin D were given the values of 4, 3, 2 and 1, respectively) | 7 (compounds having the inhibitory activity at ½, ¼ and ⅛ lower concentrations than that of polyoxin D were given the values of 6, 7 and 8, respectively) | 8 | 4 | 8 | 1 | 1 | 4 | 2 | 2 | 4 | 0.5 | 2 | 4 | comparable to that of amphotericin B | exceptionally superior inhibitory activities
13-(4-tert-Butylbenzyl)-9-O-butylberberrubine chloride [Compound No. 40] | 4 (Compounds having the inhibitory activity at 2-fold, 4-fold, 8-fold and 16-fold higher concentrations than that of polyoxin D were given the values of 4, 3, 2 and 1, respectively) | 7 (compounds having the inhibitory activity at ½, ¼ and ⅛ lower concentrations than that of polyoxin D were given the values of 6, 7 and 8, respectively) | 8 | 2 | 8 | 0.5 | 0.5 | 4 | 1 | 0.5 | 4 | 0.25 | 1 | 4 | comparable to that of amphotericin B | exceptionally superior inhibitory activities
13-(4-tert-Butylbenzyl)-9-O-propylberberrubine chloride [Compound No. 39] | 4 (Compounds having the inhibitory activity at 2-fold, 4-fold, 8-fold and 16-fold higher concentrations than that of polyoxin D were given the values of 4, 3, 2 and 1, respectively) | 7 (compounds having the inhibitory activity at ½, ¼ and ⅛ lower concentrations than that of polyoxin D were given the values of 6, 7 and 8, respectively) | 8 | 4 | 8 | 1 | 1 | 4 | 2 | 1 | 4 | 0.5 | 2 | 4 | comparable to that of amphotericin B | exceptionally superior inhibitory activities
13-(4-tert-Butylbenzyl)-9-O-propylberberrubine iodide [Compound No. 7] | 4 (Compounds having the inhibitory activity at 2-fold, 4-fold, 8-fold and 16-fold higher concentrations than that of polyoxin D were given the values of 4, 3, 2 and 1, respectively) | 7 (compounds having the inhibitory activity at ½, ¼ and ⅛ lower concentrations than that of polyoxin D were given the values of 6, 7 and 8, respectively) | 8 | 4 | 8 | 1 | 1 | 4 | 2 | 2 | 4 | 0.5 | 2 | 4 | comparable to that of amphotericin B | exceptionally superior inhibitory activities
